Tests used:
Assay type in all cases: in vivo, human
[1] = test system: borderline diabetic patients; test: Glucose tolerance test after administration of corosolic acid or placebo, blood insulin level (IRI) assayed (Test Example 1); conditions: 10 mg oral, 75 g glucose load, p<0.05, 31 patients
Protocol: A glucose tolerance test was performed after administration of corosolic acid or a placebo, in a double-blind crossover manner, and the blood insulin level (IRI: immunoreactive insulin) was assayed.
(§1) First, 31 borderline diabetic patients as test subjects were orally administered corosolic acid (10 mg, ≧99% purity) or a placebo, and blood was sampled immediately thereafter with the blood insulin level at that time designated as the value at 0 minutes. Immediately after blood sampling, 75 g of glucose was orally administered to each test subject to start a glucose tolerance test, and blood was sampled after periods of 30 minutes, 60 minutes, 90 minutes, 120 minutes and 180 minutes for measurement of the blood insulin level.
FIG. 1 is a graph showing the blood insulin levels during the glucose tolerance test. The horizontal axis represents time (min) after start of the glucose tolerance test, and the vertical axis represents IRI (μU/mL). In the graph, (a) is a case with administration of corosolic acid and (b) is a case with administration of the placebo.

test subjects = test: Glucose tolerance test after administration of corosolic acid, banaba extract or placebo, blood glucose level assayed (Test Example 2); conditions: 10 mg oral, 75 g glucose load, p<0.05, 35 subjects
Protocol: The following test was conducted to confirm that corosolic acid has a hypoglycemic effect. A glucose tolerance test was performed after administration of corosolic acid, banaba extract or a placebo, in a double-blind crossover manner, and the blood glucose level (plasma glucose concentration) was assayed.
as §1, with “35” for “31 borderline diabetic patients as”, “purity), banaba extract (trade name: COROSOLIA M, product of Use Techno Corporation; administered at 10 mg of corosolic acid)” for “purity)”, “glucose” for “insulin”
FIG. 2 is a graph showing blood glucose levels during the glucose tolerance test. The horizontal axis represents time (min) after start of the glucose tolerance test, and the vertical axis represents plasma glucose concentration (mg/dL). In the graph, (c) is a case with administration of corosolic acid, (d) is a case with administration of banaba leaf extract and (e) is a case with administration of the placebo.

[2] = test system: borderline diabetic patients; test: Changes in blood glucose and blood insulin levels after fasting, absence of glucose load (Test Example 3); conditions: fasted, 10 mg; for I: blood insulin level: unit assumed
Protocol: Three borderline diabetic patients (person, person and person) were instructed to fast from 8:00 pm (to ensure absence of glucose load), and were administered a placebo once or the test agent (corosolic acid) once at 9:00 am on the following day, after which the changes in blood glucose levels and blood insulin levels were measured. The test subjects were given absolutely no information regarding placebo or test agent (crossover, double-blind). The corosolic acid was administered in a single 10 mg dose, and each test was conducted twice.
FIG. 3 is a graph showing changes in blood glucose levels with administration of corosolic acid and a placebo in the absence of a glucose load, and FIG. 4 is a graph showing changes in blood insulin levels with administration of corosolic acid and a placebo in the absence of a glucose load.

[3] = 120 minutes after start of glucose tolerance test

C[C@H]1[C@H](C)CC[C@]2(C(=O)O)CC[C@]3(C)C(=CC[C@@H]4[C@@]5(C)C[C@@H](O)[C@H](O)C(C)(C)[C@@H]5CC[C@]43C)[C@H]12 [corosolic acid]
blood insulin level compared to placebo ([1]; 30 minutes after start of glucose tolerance test): significant increase | blood insulin level compared to placebo [1, 3]: significant drop | blood glucose level compared to placebo (test subjects; 90 minutes after start of glucose tolerance test): significant decrease | blood glucose level compared to placebo (test subjects; [3]): significant decrease | G: blood glucose level ([2]; test subject A, after 0 min): 110 mg/dL | I: blood insulin level ([2]; test subject A, after 0 min): 9 µU/mL | I: blood insulin level ([2]; test subject A, after 30 min): 6.9 µU/mL | I: blood insulin level ([2]; test subject A, after 60 min): 6.6 µU/mL | I: blood insulin level ([2]; test subject A, after 90 min): 5.9 µU/mL | I: blood insulin level ([2]; test subject A, after 120 min): 6.6 µU/mL | I: blood insulin level ([2]; test subject A, after 180 min): 5.1 µU/mL | I: blood insulin level ([2]; test subject B, after 0 min): 2.5 µU/mL | I: blood insulin level ([2]; test subject B, after 30 min): 2.6 µU/mL | I: blood insulin level ([2]; test subject B, after 60 min): 3 µU/mL | I: blood insulin level ([2]; test subject B, after 90 min): 2 µU/mL | G: blood glucose level ([2]; test subject B, after 120 min): 150 mg/dL | I: blood insulin level ([2]; test subject B, after 120 min): 3.4 µU/mL | I: blood insulin level ([2]; test subject B, after 180 min): 2.4 µU/mL | G: blood glucose level ([2]; test subject C, after 0 min): 90 mg/dL | I: blood insulin level ([2]; test subject C, after 0 min): 4.5 µU/mL | G: blood glucose level ([2]; test subject C, after 30 min): 90 mg/dL | I: blood insulin level ([2]; test subject C, after 30 min): 4.1 µU/mL | G: blood glucose level ([2]; test subject C, after 60 min): 88 mg/dL | I: blood insulin level ([2]; test subject C, after 60 min): 3.9 µU/mL | G: blood glucose level ([2]; test subject C, after 90 min): 86 mg/dL | I: blood insulin level ([2]; test subject C, after 90 min): 4.9 µU/mL | G: blood glucose level ([2]; test subject C, after 120 min): 86 mg/dL | I: blood insulin level ([2]; test subject C, after 120 min): 4 µU/mL | G: blood glucose level ([2]; test subject C, after 180 min): 81 mg/dL | I: blood insulin level ([2]; test subject C, after 180 min): 4 µU/mL

Source: patent publication US20070093552A1, “Early insulin secretion stimulator” (priority 2003, published 2007)
